Laboratory results: US20240360178A1, “MACROCYCLIC IMMUNOMODULATORS” (Bristol-Myers Squibb Company, priority 2021, published 2024)
Positions of bridges follow the written chain, without caps; N, C: chain ends. Non-standard residues stand in square brackets, D forms with d. Residues, ends and D or L forms follow the SMILES beside them. *: point of attachment. Phe(4-COOH) = N[C@@H](Cc1ccc(C(=O)O)cc1)C(=O)O; Bip = N[C@@H](Cc1ccc(-c2ccccc2)cc1)C(=O)O; Phe(3-Cl) = N[C@@H](Cc1cccc(Cl)c1)C(=O)O; Phe(3-OMe) = COc1cccc(C[C@H](N)C(=O)O)c1; Phe(3-F) = N[C@@H](Cc1cccc(F)c1)C(=O)O; Phe(3-Me) = Cc1cccc(C[C@H](N)C(=O)O)c1; NMeF = CN[C@@H](Cc1ccccc1)C(=O)O; dHyp = O=C(O)[C@H]1C[C@H](O)CN1; dTic = O=C(O)[C@H]1Cc2ccccc2CN1; Carboxymethyl = O=C(O)C*; NMeA = CN[C@@H](C)C(=O)O; Ac3c = NC1(C(=O)O)CC1; Sar = CNCC(=O)O

Target: T1, human PD-1 (Jurkat-PD-1 cells) / PE-labeled human PD-L1-Ig (Homo sapiens, UniProt Q15116)
T1 construct: expressed in transfected cells; host or cells: Jurkat cell line over-expressing human PD-1
T1 sequence (Q15116 25-288): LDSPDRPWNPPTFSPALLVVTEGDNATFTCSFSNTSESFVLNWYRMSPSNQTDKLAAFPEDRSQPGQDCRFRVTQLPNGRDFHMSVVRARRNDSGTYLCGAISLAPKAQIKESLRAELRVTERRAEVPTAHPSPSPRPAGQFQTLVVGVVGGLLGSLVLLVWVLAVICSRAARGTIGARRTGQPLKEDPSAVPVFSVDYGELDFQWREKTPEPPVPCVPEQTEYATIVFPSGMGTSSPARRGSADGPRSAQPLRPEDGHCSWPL
Assay: Jurkat-PD-1 Cell Binding High-Content Screening Assay (CBA); Jurkat hPD1-PDL1 assay
Settings: Jurkat cell line over-expressing human PD-1; PE-labeled PD-L1-Ig 20 nM final; compound incubated 2 hours at 37° C.; read-out: Jurkat HPD1-PDL1 IC50
Method: The ability of the compounds of formula (I) to bind to PD-1 was investigated using a Jurkat-PD-1 Cell Binding High-Content Screening Assay.
Jurkat-PD-1 Cell Binding High-Content Screening Assay (CBA)
Phycoerythrin (PE) was covalently linked to the Ig epitope tag of human PD-L1-Ig and fluorescently-labeled PD-L1-Ig was used for binding studies with a Jurkat cell line over-expressing human PD-1 (Jurkat-PD-1). Briefly, 8×10^3 Jurkat-hPD-1 cells were seeded into 384 well plates in 20 μL of DMEM supplemented with 10% fetal calf serum. 100 nL of compound was added to cells followed by incubation at 37° C. for 2 hours. Then, 5 μL of PE-labeled PD-L1-Ig (20 nM final), diluted in DMEM supplemented with 10% fetal calf serum. […] Data was collected and processed using a Cell Insight NXT High Content Imager and associated software.

IC50 [µM]	Compound
0.08	CC(C)C[C@@H]1NC(=O)[C@H](Cc2c[nH]c3ccccc23)NC(=O)[C@H](CC(=O)O)NC(=O)[C@H](Cc2ccc(C(=O)O)cc2)NC(=O)[C@H](Cc2cnc[nH]2)NC(=O)CSC[C@@H](C(=O)N[C@@H](C)C(N)=O)NC(=O)[C@H](CO)NC(=O)[C@H](C(C)C)NC(=O)[C@H](CC(C)C)NC(=O)[C@H](CC(N)=O)NC(=O)[C@H]2CCCN2C(=O)[C@H](C)N(C)C(=O)[C@H](C(C)C)NC(=O)[C@H](Cc2ccc(-c3ccccc3)cc2)NC1=O [Example 1046] ({CH2CO}-H[Phe(4-COOH)]DWL[Bip]V[NMeA][dP]NLVSCA-NH2; thioether N-14)
0.09	CC(C)C[C@@H]1NC(=O)[C@H](Cc2c[nH]c3ccccc23)NC(=O)[C@H](CC(=O)O)NC(=O)[C@H](Cc2cccc(F)c2)NC(=O)[C@H](Cc2ccccc2)NC(=O)CSC[C@@H](C(=O)N[C@@H](C)C(N)=O)NC(=O)[C@H](CO)NC(=O)[C@H](C(C)C)NC(=O)[C@H](CC(C)C)NC(=O)[C@H](CC(N)=O)NC(=O)[C@H]2CCCN2C(=O)[C@H](C)N(C)C(=O)[C@H](C(C)C)NC(=O)[C@H](Cc2ccc(-c3ccccc3)cc2)NC1=O [Example 1047] ({CH2CO}-F[Phe(3-F)]DWL[Bip]V[NMeA][dP]NLVSCA-NH2; thioether N-14)
0.09	CC(C)C[C@@H]1NC(=O)[C@H](Cc2c[nH]c3ccccc23)NC(=O)[C@H](CC(=O)O)NC(=O)[C@H](Cc2ccc(O)cc2)NC(=O)[C@H](Cc2ccccc2)NC(=O)CSC[C@@H](C(=O)N[C@@H](C)C(N)=O)NC(=O)[C@H](CO)NC(=O)[C@H](C(C)C)NC(=O)[C@H](CC(C)C)NC(=O)[C@H](CC(N)=O)NC(=O)[C@H]2Cc3ccccc3CN2C(=O)[C@H](C)N(C)C(=O)[C@H](C(C)C)NC(=O)[C@H](Cc2ccc(-c3ccccc3)cc2)NC1=O [Example 1049] ({CH2CO}-FYDWL[Bip]V[NMeA][dTic]NLVSCA-NH2; thioether N-14)
0.11	CC(C)C[C@@H]1NC(=O)[C@H](Cc2c[nH]c3ccccc23)NC(=O)[C@H](CC(=O)O)NC(=O)[C@H](Cc2ccc(O)cc2)NC(=O)[C@H](Cc2ccccc2)NC(=O)CSC[C@@H](C(=O)N[C@@H](C)C(N)=O)NC(=O)[C@H]([C@@H](C)O)NC(=O)[C@H](C(C)C)NC(=O)[C@H](CC(C)C)NC(=O)[C@H](CC(N)=O)NC(=O)[C@H]2CCCN2C(=O)[C@H](C)N(C)C(=O)[C@H](C(C)C)NC(=O)[C@H](Cc2ccc(-c3ccccc3)cc2)NC1=O [Example 1050] ({CH2CO}-FYDWL[Bip]V[NMeA][dP]NLVTCA-NH2; thioether N-14)
0.11	CC(C)C[C@@H]1NC(=O)[C@H](Cc2c[nH]c3ccccc23)NC(=O)[C@H](CC(=O)O)NC(=O)[C@H](Cc2ccc(O)cc2)NC(=O)[C@H](Cc2ccccc2)NC(=O)CSC[C@@H](C(=O)NCC(N)=O)NC(=O)[C@H](CO)NC(=O)[C@H](C(C)C)NC(=O)[C@H](CC(C)C)NC(=O)[C@H](CCCCN)NC(=O)CN(C)C(=O)[C@H](C)N(C)C(=O)[C@H](C(C)C)NC(=O)[C@H](Cc2ccc(-c3ccccc3)cc2)NC1=O [Example 1051] ({CH2CO}-FYDWL[Bip]V[NMeA][Sar]KLVSCG-NH2; thioether N-14)
0.12	CC(C)C[C@@H]1NC(=O)[C@H](Cc2c[nH]c3ccccc23)NC(=O)[C@H](CC(=O)O)NC(=O)[C@H](Cc2ccc(OCC(=O)O)cc2)NC(=O)[C@H](Cc2cnc[nH]2)NC(=O)CSC[C@@H](C(=O)N[C@@H](C)C(N)=O)NC(=O)[C@H](CO)NC(=O)[C@H](C(C)C)NC(=O)[C@H](CC(C)C)NC(=O)[C@H](CC(N)=O)NC(=O)[C@H]2CCCN2C(=O)[C@H](C)N(C)C(=O)[C@H](C(C)C)NC(=O)[C@H](Cc2ccc(-c3ccccc3)cc2)NC1=O [Example 1052] ({CH2CO}-HY(Carboxymethyl)DWL[Bip]V[NMeA][dP]NLVSCA-NH2; thioether N-14)
0.12	Cc1cccc(C[C@@H]2NC(=O)[C@H](CC(=O)O)NC(=O)[C@H](Cc3ccc(O)cc3)NC(=O)[C@H](Cc3ccccc3)NC(=O)CSC[C@@H](C(=O)N[C@@H](C)C(N)=O)NC(=O)[C@H](CO)NC(=O)[C@H](C(C)C)NC(=O)[C@H](CC(C)C)NC(=O)[C@H](CC(N)=O)NC(=O)CN(C)C(=O)[C@H](C)N(C)C(=O)[C@H](C(C)C)NC(=O)[C@H](Cc3ccc(-c4ccccc4)cc3)NC(=O)[C@H](CC(C)C)NC2=O)c1 [Example 1053] ({CH2CO}-FYD[Phe(3-Me)]L[Bip]V[NMeA][Sar]NLVSCA-NH2; thioether N-14)
0.12	CC(C)C[C@@H]1NC(=O)[C@H](Cc2c[nH]c3ccccc23)NC(=O)[C@H](CC(=O)O)NC(=O)[C@H](Cc2ccc(O)cc2)NC(=O)[C@H](Cc2ccccc2)NC(=O)CSC[C@@H](C(=O)N[C@@H](C)C(N)=O)NC(=O)[C@H](CO)NC(=O)[C@H](C(C)C)NC(=O)[C@H](CC(C)C)NC(=O)[C@H](CC(N)=O)NC(=O)[C@H]2C[C@H](O)CN2C(=O)[C@H](C)N(C)C(=O)[C@H](C(C)C)NC(=O)[C@H](Cc2ccc(-c3ccccc3)cc2)NC1=O [Example 1054] ({CH2CO}-FYDWL[Bip]V[NMeA][dHyp]NLVSCA-NH2; thioether N-14)
0.12	COc1cccc(C[C@@H]2NC(=O)[C@H](Cc3ccccc3)NC(=O)CSC[C@@H](C(=O)N[C@@H](C)C(N)=O)NC(=O)[C@H](CO)NC(=O)[C@H](C(C)C)NC(=O)[C@H](CC(C)C)NC(=O)[C@H](CC(N)=O)NC(=O)[C@H]3CCCN3C(=O)[C@H](C)N(C)C(=O)[C@H](C(C)C)NC(=O)[C@H](Cc3ccc(-c4ccccc4)cc3)NC(=O)[C@H](CC(C)C)NC(=O)[C@H](Cc3c[nH]c4ccccc34)NC(=O)[C@H](CC(=O)O)NC2=O)c1 [Example 1055] ({CH2CO}-F[Phe(3-OMe)]DWL[Bip]V[NMeA][dP]NLVSCA-NH2; thioether N-14)
0.13	CC(C)C[C@@H]1NC(=O)[C@H](Cc2c[nH]c3ccccc23)NC(=O)[C@H](CC(=O)O)NC(=O)[C@H](Cc2ccc(O)cc2)NC(=O)[C@H](Cc2ccccc2)NC(=O)CSC[C@@H](C(=O)NC2(C(N)=O)CC2)NC(=O)[C@H](CO)NC(=O)[C@H](C(C)C)NC(=O)[C@H](CC(C)C)NC(=O)[C@H](CC(N)=O)NC(=O)CN(C)C(=O)[C@H](C)N(C)C(=O)[C@H](C(C)C)NC(=O)[C@H](Cc2ccc(-c3ccccc3)cc2)NC1=O [Example 1056] ({CH2CO}-FYDWL[Bip]V[NMeA][Sar]NLVSC[Ac3c]-NH2; thioether N-14)
0.13	CC(C)C[C@@H]1NC(=O)[C@H](CCCNC(=N)N)NC(=O)[C@H](Cc2ccccc2)N(C)C(=O)[C@H](C)N(C)C(=O)[C@H](CCCNC(=N)N)NC(=O)[C@H](Cc2ccc(-c3ccccc3)cc2)NC(=O)[C@H](C(C)C)NC(=O)[C@H](Cc2c[nH]c3ccccc23)NC(=O)[C@H](CC(=O)O)NC(=O)[C@H](Cc2ccc(O)cc2)NC(=O)[C@H](CCC(N)=O)NC(=O)CSC[C@@H](C(=O)NCC(N)=O)NC(=O)[C@H](CO)NC(=O)[C@H](C(C)C)NC1=O [Example 1057] ({CH2CO}-QYDWV[Bip]R[NMeA][NMeF]RLVSCG-NH2; thioether N-14)
0.13	CC(C)C[C@@H]1NC(=O)[C@H](CCCNC(=N)N)NC(=O)[C@H](Cc2ccccc2)N(C)C(=O)[C@H](C)N(C)C(=O)[C@H](CCCNC(=N)N)NC(=O)[C@H](Cc2ccc(-c3ccccc3)cc2)NC(=O)[C@H](C(C)C)NC(=O)[C@H](Cc2c[nH]c3ccccc23)NC(=O)[C@H](CC(=O)O)NC(=O)[C@H](Cc2ccc(O)cc2)NC(=O)[C@H](Cc2cnc[nH]2)NC(=O)CSC[C@@H](C(=O)NCC(N)=O)NC(=O)[C@H](CO)NC(=O)[C@H](C(C)C)NC1=O [Example 1058] ({CH2CO}-HYDWV[Bip]R[NMeA][NMeF]RLVSCG-NH2; thioether N-14)
0.14	CC(C)C[C@@H]1NC(=O)[C@H](Cc2c[nH]c3ccccc23)NC(=O)[C@H](CC(=O)O)NC(=O)[C@H](Cc2ccc(C(=O)O)cc2)NC(=O)[C@H](CC(N)=O)NC(=O)CSC[C@@H](C(=O)N[C@@H](C)C(N)=O)NC(=O)[C@H](CO)NC(=O)[C@H](C(C)C)NC(=O)[C@H](CC(C)C)NC(=O)[C@H](CC(N)=O)NC(=O)[C@H]2CCCN2C(=O)[C@H](C)N(C)C(=O)[C@H](C(C)C)NC(=O)[C@H](Cc2ccc(-c3ccccc3)cc2)NC1=O [Example 1059] ({CH2CO}-N[Phe(4-COOH)]DWL[Bip]V[NMeA][dP]NLVSCA-NH2; thioether N-14)
0.14	CC(C)C[C@@H]1NC(=O)[C@H](Cc2c[nH]c3ccccc23)NC(=O)[C@H](CC(=O)O)NC(=O)[C@H](Cc2ccc(O)cc2)NC(=O)[C@H](Cc2ccccc2)NC(=O)CSC[C@@H](C(=O)N[C@@H](C)C(N)=O)NC(=O)[C@H](CO)NC(=O)[C@H](C(C)C)NC(=O)[C@H](CC(C)C)NC(=O)[C@H](CC(N)=O)NC(=O)[C@H](Cc2ccccc2)N(C)C(=O)[C@H](C)N(C)C(=O)[C@H](C(C)C)NC(=O)[C@H](Cc2ccc(-c3ccccc3)cc2)NC1=O [Example 1060] ({CH2CO}-FYDWL[Bip]V[NMeA][NMeF]NLVSCA-NH2; thioether N-14)
0.14	CC(C)C[C@@H]1NC(=O)[C@H](Cc2cccc(Cl)c2)NC(=O)[C@H](CC(=O)O)NC(=O)[C@H](Cc2ccc(O)cc2)NC(=O)[C@H](Cc2ccccc2)NC(=O)CSC[C@@H](C(=O)N[C@@H](C)C(N)=O)NC(=O)[C@H](CO)NC(=O)[C@H](C(C)C)NC(=O)[C@H](CC(C)C)NC(=O)[C@H](CC(N)=O)NC(=O)CN(C)C(=O)[C@H](C)N(C)C(=O)[C@H](C(C)C)NC(=O)[C@H](Cc2ccc(-c3ccccc3)cc2)NC1=O [Example 1061] ({CH2CO}-FYD[Phe(3-Cl)]L[Bip]V[NMeA][Sar]NLVSCA-NH2; thioether N-14)
